In US20230405063A1, “USE OF PROBIOTIC COMPONENT AND PHARMACEUTICAL COMPOSITION CONTAINING PROBIOTIC COMPONENT” (CHENGDU KUACHANGAOPU MEDICAL TECHNOLOGY CO., LTD., priority 2020, published 2023):

Assays:
[1] = test system: mouse embryonic fibroblasts 3T3; experiment: Local lesion inhibition in 3T3 fibroblast nodule model in nude mice (Example 6, Table 9); assay type: in vivo; details: dosed twice at interval of 2 days, 150 μl/mouse/time, 7th day after final administration; for V (x ± s), volume of local lesions, series B / relative local lesion inhibition rate r′B: intra-nodal injection; for V (x ± s), volume of local lesions, series A / relative local lesion inhibition rate r′A: intraperitoneal injection
Source text: V=0.5×a×b^2, wherein a and b represent the length and width of the local lesion, respectively; Volume of the local lesion (e.g. tumor):
Local lesion (e.g., tumor) proliferation rate (R)=TV/CV×100, wherein TV and CV are the local lesion volumes in the study group and negative control group, respectively;
The method for determining the effect of combined drug administration in animal experiments was Burgi method (Burgi Y. Pharmacology; Drug actions and reactions. Cancerres. 1978, 38(2), 284-285). The Burgi method was modified by Zhengjun JIN (Zhengjun JIN, Equal probability and curve and “Q50”, Journal of the Second Shanghai Medical College; 1981, 1, 75-86) with q calculated as: q=EA+B/(EA+EB−EA×EB). In the following examples of the present invention, the combinational pharmaceutical efficacies (drug efficacies) of drug A and drug B co-administration was determined by ratio q of actual pharmaceutical efficacy (drug efficacy)/theoretical pharmaceutical efficacy (drug efficacy) according to Zhengjun JIN method, as follows.
Nude mice were used as experimental subjects, and mouse embryonic fibroblasts 3T3 were used as modeling cells. 2×10^4 cells/mouse were injected into the right axilla subcutaneously for transplantation nodule modeling, and the average volume of tumor-like nodules in successfully modeled nude mice was 171.5 mm^3. The model animals were randomly divided into […], and the drugs were administered according to Table 9. Each group except for groups 21-24 were administered by intraperitoneal injection, intra-nodal injection. The drugs used in groups 21-24 were a composition of non-local administration dosage form (dosage form that a probiotic component and a co-administration substance could be administered separately). The administration route of series A was: intraperitoneal injection of probiotic component+intra-nodal injection of co-administration substance; and the administration route of series B was: intraperitoneal injection of co-administration substance+intra-nodal injection of probiotic component. Each group was dosed twice at an interval of 2 days, with an injection volume of 150 μl/mouse/time. On the 7th day after the final administration, the volume (V) of local lesions comprising fibroblasts was measured, and the relative local lesion inhibition rates (r′A, r′B) were calculated for series A and series B, respectively, as compared with the negative control group. Further, the actual drug efficacy/expected efficacy ratio q could also be calculated according to the therapeutic effect (local lesion inhibition rate).

[2] = test system: human liver cancer HepG2 cells; experiment: Tumor inhibition in HepG2 tumor-bearing nude mice (Example 2, Table 4); assay type: in vivo; details: for Tumor weight (x ± s) / Tumor inhibition rate r: dosed once, 150 μl/mouse; for Tumor weight (x ± s): 7th day after administration; for Tumor inhibition rate r: 7th day, relative to negative control; for Ratio of tumor inhibition rates, intratumoral group / intravenous group of the same drug (E7/E1, E8/E2, E10/E4): same drug and dose, local vs systemic administration
Procedure: The tumor-bearing nude mice were widely used for drug studies on chemotherapy rather than immunotherapy in patients with solid tumors. Taking nude mice as experimental subjects, human liver cancer HepG2 cells were used as modeling cells, and 1×10^5 cells/mouse were injected into the right axilla subcutaneously for transplantation tumor modeling, and the average tumor volume of successfully modeled nude mice was 161.3 mm^3. The model animals were randomly divided into 17 groups. The drugs were administered according to the drug and dosing method in Table 4. Each group was dosed once with an injection volume of 150 μl/mouse. On the 7th day after drug administration, the animals were euthanized, and after dissection, the tumor tissue was taken out to determine the tumor weight, and the tumor inhibition rate (r) was calculated relative to the negative control group.

breast cancer 4T1 cells [3] = experiment: Tumor inhibition rate r′10d, r′30d in 4T1 tumor-bearing BALB/c mice (Example 12, Table 18, series A); assay type: in vivo; details: series A modeled mice, intratumoral injection twice at 3-day interval, 50 ul/mouse/time; for Series A r′10d (tumor inhibition rate): 10th day after 1st administration; for Series A r′30d (tumor inhibition rate): 30th day after 1st administration
Procedure: (§1) BALB/c mice were used as experimental subjects, in which modeled animals were used as series A and unmodeled animals as series B. Breast cancer 4T1 cells were use as modeling cells for modeled animals. 0.25×10^5 cells/animal were injected into the right axilla subcutaneously for transplantation tumor modeling, and the average tumor volume of successfully modeled nude mice was 173.6 mm^3. The modeled animals were randomly divided into 18 groups, with 10 animals in each group, and the drugs according to Table 18 was administered via intratumoral injection. BALB/c mice were additionally taken as experimental subjects without modeling, and randomly divided into 18 groups, with 10 animals in each group, the drugs according to Table 18 was administered via intramuscular injection into the right hind thigh. All the study drugs comprising probiotic components were formulated as aqueous formulations according to the preparation method of Example 1, and the other drugs were formulated as aqueous solutions according to the existing well-known methods. Each group was administered twice at an interval of 3 days, and the dosage was 50 ul/mouse/time.
On the 30th day after the first administration, each group of series A and each group of series B were subcutaneous cell transplantation of 1×10^5 breast cancer 4T1 cells/mouse and 0.2×10^5 fibroblast 3T3 cells/mouse respectively to left anterior axilla and left posterior axilla. The tumor incidence rates of 4T1 cell transplantation (S4T1) and of 3T3 cell transplantation (S3T3) in each group were observed on the 10th day after the cell transplantation, wherein the tumor incidence rate S=(number of tumor-bearing animals/number of cell transplanted animals)×100%.

breast cancer 4T1 cells [4] = experiment: Tumor incidence rate after 4T1 cell transplantation (S4T1) on day 30 (Example 12, Table 18); assay type: in vivo, BALB/c mice; details: cells transplanted on 30th day, observed 10th day after transplantation; for Series A S4T1 (tumor incidence rate of 4T1 cell transplantation): series A modeled mice, intratumoral injection; for Series B S4T1 (tumor incidence rate of 4T1 cell transplantation): series B unmodeled mice, intramuscular injection into right hind thigh
Procedure: as §1, with “Breast cancer 4T1 cells were use as modeling cells for modeled animals. 0.25×10^5 cells/animal were injected into the right axilla subcutaneously for transplantation tumor modeling, and the average tumor volume of successfully modeled nude mice was 173.6 mm^3.” left out

[5] = test system: outer lateral muscle mass of the right leg; experiment: Local effect on normal muscle tissue, area of abnormal regions, BALB/c mice (Example 9, Table 15); assay type: in vivo; details: dosed once into muscle, 100 ul/mouse, 7th day
Procedure: BALB/c mice were used as experimental subjects, and the model animals were randomly divided into 4 groups, having 6 animals in each group. The drugs were administered according to Table 15. […] On the 7th day after drug administration, the animals were euthanized. The specimens of the outer lateral muscle mass of the right leg were taken out by autopsy, and perform a general pathological analysis. The sections were measured for the area of abnormal regions such as necrosis and nodules that distinguished from normal muscle.

Compound | V (x ± s), volume of local lesions, series B [1] | relative local lesion inhibition rate r′B [1] | V (x ± s), volume of local lesions, series A [1] | relative local lesion inhibition rate r′A [1] | Tumor weight (x ± s) ([2]; intratumoral injection) | Tumor inhibition rate r ([2]; intratumoral injection) | Tumor weight (x ± s) ([2]; intravenous injection) | Tumor inhibition rate r ([2]; intravenous injection) | Ratio of tumor inhibition rates, intratumoral group / intravenous group of the same drug (E7/E1, E8/E2, E10/E4) [2] | Series A r′10d (tumor inhibition rate) (breast cancer 4T1 cells [3]) | Series A r′30d (tumor inhibition rate) (breast cancer 4T1 cells [3]) | Series A S4T1 (tumor incidence rate of 4T1 cell transplantation) (breast cancer 4T1 cells [4]) | Series B S4T1 (tumor incidence rate of 4T1 cell transplantation) (breast cancer 4T1 cells [4]) | Area of abnormal regions [5]
O=c1[nH]cc(F)c(=O)[nH]1 [1% 5-fluorouracil, 5-fluorouracil] | 1.226 ± 0.217 cm^3 | 14.3% | 1.225 ± 0.211 cm^3 | 9.7% | 0.133 ± 0.094 g | 49.5% | 0.139 ± 0.094 g | 42.3% | < 200% | 38.5% | 6.1% | 100% | 100% | 
CCO [75% ethanol, ethanol] | 1.078 ± 0.221 cm^3 | 24.7% | 1.300 ± 0.197 cm^3 | 4.2% | 0.122 ± 0.085 g | 53.6% | 0.226 ± 0.113 g | 6.1% | > 200% | 42.1% | 3.2% | 100% | 100% | 33.16 ± 13.44 mm^2
